Data reported in patent publication US20190151350A1, “DEPOLYMERIZED HOLOTHURIAN GLYCOSAMINOGLYCAN COMPOSITION AND PREPARATION METHOD AND APPLICATION THEREOF” (Suzhou Yi-hua Biomedical Technology co., Ltd, priority 2017, published 2019).

System: 4T1 murine mammary carcinoma
Experiment: Orthotopic 4T1 murine mammary carcinoma model, lung metastasis
Type: in vivo, BALB/C mice
Procedure: 4T1 cells are cultured with RPMI-1640 culture solution, wherein the concentration of added fetal calf serum is 10%, a penicillin/streptomycin double-antibody is diluted in the culture solution based on the ratio of 1:100, and the cells are cultured in a thermostatic incubator which contains 5% CO2 and has a saturation temperature of 37° C. The cells are subjected to passage every other 2-3 days based on the ratio of 1:3-1:5. BALB/C mice are randomly divided into 7 groups, and a fourth fat pad of the breast is inoculated with 1×10^5 4 T1 cells. Then 20 mg/kg, 40 mg/kg and 80 mg/kg […] and 4 mg/kg dalteparin are injected to each group respectively. Mice were observed daily. Body weights and tumor volumes were recorded three times per week during the experiment. Breast tumors are removed after continuous administration for 12 days, and then 4 mg/kg cisplatin is […] to each group from the 13th thy, once in every four days. On the 30th day, anesthesia is conducted, the mice are sacrificed, lungs and spleens are taken out, washed and weighted. Photos were taken and lung samples were fixed in 10% neutral for metastatic nodule count and HE staining

[1] = cisplatin alone or combined with dHG10092, compared with negative control group

**Q.** Which results are given for N.N.[Cl][Pt][Cl] [Cisplatin]?
**A.** body weight (cisplatin 4 mg/kg, alone or in a combination): can cause weight reduction; lung weight [1]: much lower; spleen weight [1]: much lower; lung tumor area range (HE staining) (cisplatin independently or with dHG10092): remarkably reduce the lung tumor area range
